Laboratory results: patent US5877147A, “Compounds for medicinal use” (Peptech (UK) Limited, priority 1993, dated 1999)

Key:
[1] = tested on: Ig in saliva and genital tract secretions; conditions: 3 days after 1 mg GMDP orally x 10 days
Description: (§1) The study group consisted of 50 women between 20 and 30 years of age (mean 26.7) with HPV of the cervix. The duration of the disease varied from 1 to 3.5 years. […] To control for variation in Ig content of cervical secretions during the menstrual cycle, treatment was commenced 8-10 days after the beginning of the period.
(§2) A number of immunological parameters were monitored before the beginning of treatment; immunoglobulin (Ig) in serum (radial immunodiffusion), Ig in saliva and genital tract secretions (ELISA), subpopulations of immune cells (immunocytofluorimetry).
(§3) Follow up studies on the clinical progression of the HPV infection were performed
(§4) Control values for immunological parameters were also taken from a group of women free of HPV infection. Their age range was 20 to 30 years with a mean of 25.6.

[2] = tested on: subpopulations of immune cells; conditions: blood, 3 days after 1 mg GMDP orally x 10 days
Description: as §1, §2, §3, §4

[3] = tested on: immunoglobulin (Ig) in serum; conditions: 3 days after 1 mg GMDP orally x 10 days
Description: as §1, §2, §3, §4

mice = conditions: cited from earlier work
[4] = tested on: Human Papilloma Virus (HPV) infection of the uterine cervix
Description: as §1, §3

IgA = IgA levels in treated patients (mucosal immunity); type: in vivo, human; conditions: in words
[5] = that of MDP = 100%; cited from earlier work
[6] = tested on: lung and peritoneal macrophages; conditions: orally administered, non-liposome encapsulated; cited from earlier work
melanoma metastases = conditions: orally administered, non-liposome encapsulated; cited from earlier work

CC(=O)NC1C(OC2C(CO)OC(O)C(NC(C)=O)C2OC(C)C(=O)NC(C)C(=O)NC(CCC(=O)O)C(N)=O)OC(CO)C(O)C1O [GMDP, N-acetyl-D-glucosaminyl-(β1-4)-N-acetylmuramyl-L-alanyl-D-isoglutamine]
Mucus of uterine cervix IgD, after treatment ([1]; before 0.326 ± 0.16, spread 0.17): 0.315 mg/dL
Saliva IgM, after treatment ([1]; before 3.17 ± 1.05, spread 1.11): 1.65 mg/dL
Mucus of uterine cervix IgM, after treatment ([1]; before 3.18 ± 2.21, spread 1.65): 1.8 mg/dL
Mucus of uterine cervix IgG, after treatment ([1]; before 9.57 ± 2.19, spread 3.01): 12.01 mg/dL
Saliva IgA, after treatment ([1]; before 11.45 ± 3.48, spread 2.98): 13.16 mg/dL
Saliva IgG, after treatment ([1]; before 16.19 ± 4.01, spread 4.88): 15.05 mg/dL
Saliva sIgA, after treatment ([1]; before 26.53 ± 5.23, spread 4.96): 25.46 mg/dL
B-cells %, after treatment ([2]; before 5.30 ± 0.8, spread 1.07): 5.08%
CD16 +ve %, after treatment ([2]; before 16.3 ± 2.1, spread 2.3): 13.1%
CD8 +ve %, after treatment ([2]; before 24.2 ± 2.87, spread 3.17): 20.3%
Lymphocytes %, after treatment ([2]; before 34.11 ± 3.16, spread 2.68): 35.77%
CD4 +ve %, after treatment ([2]; before 34.6 ± 3.1, spread 3.8): 41.8%
CD3 ve %, after treatment ([2]; before 55.8 ± 4.1, spread 3.6): 59.12%
B-cells absolute, after treatment ([2]; before 80.1 ± 12.1, spread 21.7): 103.8
CD16 +ve absolute, after treatment ([2]; before 246.3 ± 31.7, spread 47.1): 268.1
CD8 +ve absolute, after treatment ([2]; before 365.7 ± 43.4, spread 64.9): 415.3
Serum IgM, after treatment ([3]; before 123.8 ± 10.4, spread 11.2, p<0.01 vs before): 160.8 mg/dL
Serum IgA, after treatment ([3]; before 216.0 ± 16.8, spread 18.2): 228.7 mg/dL
Serum IgG, after treatment ([3]; before 1424 ± 48, spread 51, p<0.01 vs before): 1258 mg/dL
LD50 (acute toxicity) (mice): 7000 mg/kg
Recurrence of HPV, number of patients ([4]; 30 in group, 1 mg GMDP orally daily for 10 days, adjunct therapy, placebo 7 of 20): 3
Recurrence of HPV, % of group ([4]; 30 in group, 1 mg GMDP orally daily for 10 days, adjunct therapy, placebo 35%): 10%
Full Cure, number of patients ([4]; 30 in group, 1 mg GMDP orally daily for 10 days, adjunct to antibiotics, laser and cryotherapy, placebo 13 of 20): 27
Full Cure, % of group ([4]; 30 in group, 1 mg GMDP orally daily for 10 days, adjunct to laser and cryotherapy, placebo 65%): 90%
rate of cure versus placebo group ([4]; GMDP as adjunct to laser and cryotherapy, in words): increase in the rate of cure
levels of IgA in treated patients (IgA): especially high
pyrogenicity relative to MDP [5]: about 50%

CCCCCCCCCCCCCCCC(=O)OC[C@H](COP(=O)([O-])OCCNC(=O)[C@H](C)NC(=O)CC[C@@H](NC(=O)[C@H](C)NC(=O)[C@@H](C)O[C@H]1[C@H](O)[C@@H](CO)OC(O)[C@@H]1NC(C)=O)C(N)=O)OC(=O)CCCCCCCCCCCCCCC.O.[Na+] (stereo partly drawn) [MTP-PE, N-acetyl-muramyl-L-alanyl-D-isoglutaminyl-L-alanyl-2-(1',2'-dipalmitoyl-sn-glycero-3'-hydroxy-phosphoryloxy)ethylamide, monosodium]
tumouricidal activity in lung and peritoneal macrophages [6]: produced tumouricidal activity
eradicating well established melanoma metastases (melanoma metastases): not effective
inhibiting lung and lymph node metastasis (melanoma metastases): effective

N-acetyl-D-glucosaminyl-(β1-4)-N-acetylmuramyl-L-alanyl-D-glutamic acid [GMDP-A]
levels of IgA in treated patients (IgA): especially high
